Article PMC8371461 (Frontiers in Pharmacology, 2021)

What was measured:
ZAK = biological target: T1, ZAK (Homo sapiens, UniProt Q9NYL2); test: kinome scan; type: binding; conditions: 10 µM
T1 construct: purchased DiscoverX (KINOMEscan)

EGFR(L747-E749delA750P) = biological target: T2, EGFR(L747-E749delA750P) (Homo sapiens, UniProt P00533, A750P/DEL747-749); test: kinome scan; type: binding; conditions: 10 µM
T2 construct: purchased DiscoverX (KINOMEscan)

NDR1 = biological target: T3, NDR1 (Homo sapiens, UniProt Q15208); test: kinome scan; type: binding; conditions: 10 µM
T3 construct: purchased DiscoverX (KINOMEscan)

ERK4 = biological target: T4, ERK4 (Homo sapiens, UniProt P31152); test: kinome scan; type: binding; conditions: 10 µM
T4 construct: purchased DiscoverX (KINOMEscan)

CAMKK1 = biological target: T5, CAMKK1 (Homo sapiens, UniProt Q8N5S9); test: kinome scan; type: binding; conditions: 10 µM
T5 construct: purchased DiscoverX (KINOMEscan)

CAMKK2 = biological target: T6, CAMKK2 (Homo sapiens, UniProt Q96RR4); test: kinome scan; type: binding; conditions: 10 µM
T6 construct: purchased DiscoverX (KINOMEscan)
T6 sequence (Q96RR4 whole entry): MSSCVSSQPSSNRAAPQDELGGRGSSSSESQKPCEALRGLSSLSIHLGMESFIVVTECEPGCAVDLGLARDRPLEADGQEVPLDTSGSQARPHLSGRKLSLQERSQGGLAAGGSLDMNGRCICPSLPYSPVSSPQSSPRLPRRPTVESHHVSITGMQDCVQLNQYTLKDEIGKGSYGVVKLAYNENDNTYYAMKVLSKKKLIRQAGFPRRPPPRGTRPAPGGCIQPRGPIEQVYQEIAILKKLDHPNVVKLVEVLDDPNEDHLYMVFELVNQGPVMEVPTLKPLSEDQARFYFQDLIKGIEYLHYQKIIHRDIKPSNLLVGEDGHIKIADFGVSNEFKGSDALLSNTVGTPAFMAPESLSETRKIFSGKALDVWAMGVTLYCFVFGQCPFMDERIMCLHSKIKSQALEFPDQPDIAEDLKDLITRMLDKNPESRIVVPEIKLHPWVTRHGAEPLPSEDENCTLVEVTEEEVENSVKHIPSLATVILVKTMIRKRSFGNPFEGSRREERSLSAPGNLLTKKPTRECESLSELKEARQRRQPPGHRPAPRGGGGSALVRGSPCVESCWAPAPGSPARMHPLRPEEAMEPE

KIT(L576P) = biological target: T7, KIT(L576P) (Homo sapiens, UniProt P10721, L576P); test: kinome scan; type: binding; conditions: 10 µM
T7 construct: purchased DiscoverX (KINOMEscan)

MARK3 = biological target: T8, MARK3 (Homo sapiens, UniProt P27448); test: kinome scan; type: binding; conditions: 10 µM
T8 construct: purchased DiscoverX (KINOMEscan)

MEK3 = biological target: T9, MEK3 (Homo sapiens, UniProt P46734); test: kinome scan; type: binding; conditions: 10 µM
T9 construct: purchased DiscoverX (KINOMEscan)

ACVR2B = biological target: T10, ACVR2B (Homo sapiens, UniProt Q13705); test: kinome scan; type: binding; conditions: 10 µM
T10 construct: purchased DiscoverX (KINOMEscan)

CSNK1A1L = biological target: T11, CSNK1A1L (Homo sapiens, UniProt Q8N752); test: kinome scan; type: binding; conditions: 10 µM
T11 construct: purchased DiscoverX (KINOMEscan)

CHEK2 = biological target: T12, CHEK2 (Homo sapiens, UniProt O96017); test: kinome scan; type: binding; conditions: 10 µM
T12 construct: purchased DiscoverX (KINOMEscan)

DMPK2 = biological target: T13, DMPK2 (Homo sapiens, UniProt Q6DT37); test: kinome scan; type: binding; conditions: 10 µM
T13 construct: purchased DiscoverX (KINOMEscan)

[1] = tested on: Estrogen receptor alpha signaling; parameters: method as in CHEMBL1794542; conditions: reported activity, data mining; ref CHEMBL1794542; cited from earlier work
JNK2 = biological target: T14, JNK2 (Homo sapiens, UniProt P45984); test: kinome scan; type: binding; conditions: 10 µM
T14 construct: purchased DiscoverX (KINOMEscan)

MLK2 = biological target: T15, MLK2 (Homo sapiens, UniProt Q02779); test: kinome scan; type: binding; conditions: 10 µM
T15 construct: purchased DiscoverX (KINOMEscan)

[2] = biological target: T16, JAK2(JH1domain-catalytic) (Homo sapiens, UniProt O60674); test: kinome scan; type: binding; conditions: 10 µM
T16 construct: JAK2(JH1domain-catalytic); purchased DiscoverX (KINOMEscan)
T16 sequence (O60674 840-1132 limits assumed): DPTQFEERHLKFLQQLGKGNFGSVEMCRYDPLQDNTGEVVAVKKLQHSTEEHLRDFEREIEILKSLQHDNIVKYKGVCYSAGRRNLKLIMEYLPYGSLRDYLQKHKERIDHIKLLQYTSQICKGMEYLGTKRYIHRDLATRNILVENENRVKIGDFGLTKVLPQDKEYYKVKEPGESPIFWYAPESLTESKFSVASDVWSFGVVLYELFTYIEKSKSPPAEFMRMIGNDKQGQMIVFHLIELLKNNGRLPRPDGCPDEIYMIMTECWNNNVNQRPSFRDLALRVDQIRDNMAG

SNARK = biological target: T17, SNARK (Homo sapiens, UniProt Q9H093); test: kinome scan; type: binding; conditions: 10 µM
T17 construct: purchased DiscoverX (KINOMEscan)

KIT(V559DT670I) = biological target: T18, KIT(V559DT670I) (Homo sapiens, UniProt P10721, T670I/V559D); test: kinome scan; type: binding; conditions: 10 µM
T18 construct: purchased DiscoverX (KINOMEscan)

FRK = biological target: T19, FRK (Homo sapiens, UniProt P42685); test: kinome scan; type: binding; conditions: 10 µM
T19 construct: purchased DiscoverX (KINOMEscan)

PKNB(M.tuberculosis) = biological target: T20, PKNB(M.tuberculosis) (Mycobacterium tuberculosis, UniProt P9WI81); test: kinome scan; type: binding; conditions: 10 µM
T20 construct: purchased DiscoverX (KINOMEscan)

LYN = biological target: T21, LYN (Homo sapiens, UniProt P07948); test: kinome scan; type: binding; conditions: 10 µM
T21 construct: purchased DiscoverX (KINOMEscan)

EPHA3 = biological target: T22, EPHA3 (Homo sapiens, UniProt P29320); test: kinome scan; type: binding; conditions: 10 µM
T22 construct: purchased DiscoverX (KINOMEscan)

LKB1 = biological target: T23, LKB1 (Homo sapiens, UniProt Q15831); test: kinome scan; type: binding; conditions: 10 µM
T23 construct: purchased DiscoverX (KINOMEscan)
T23 sequence (Q15831 whole entry): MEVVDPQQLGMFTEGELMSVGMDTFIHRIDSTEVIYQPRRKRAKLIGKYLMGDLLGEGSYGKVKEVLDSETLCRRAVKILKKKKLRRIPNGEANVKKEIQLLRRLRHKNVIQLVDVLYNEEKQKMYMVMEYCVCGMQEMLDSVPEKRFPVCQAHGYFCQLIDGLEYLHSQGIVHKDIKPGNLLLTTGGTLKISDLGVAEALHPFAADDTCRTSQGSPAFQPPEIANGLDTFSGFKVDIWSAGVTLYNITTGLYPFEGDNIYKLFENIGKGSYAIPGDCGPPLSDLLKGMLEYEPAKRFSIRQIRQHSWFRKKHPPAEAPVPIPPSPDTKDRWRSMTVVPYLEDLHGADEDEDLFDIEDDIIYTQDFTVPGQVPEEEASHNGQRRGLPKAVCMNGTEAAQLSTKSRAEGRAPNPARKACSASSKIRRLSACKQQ

PRKX = biological target: T24, PRKX (Homo sapiens, UniProt P51817); test: kinome scan; type: binding; conditions: 10 µM
T24 construct: purchased DiscoverX (KINOMEscan)

MRCKA = biological target: T25, MRCKA (Homo sapiens, UniProt Q5VT25); test: kinome scan; type: binding; conditions: 10 µM
T25 construct: purchased DiscoverX (KINOMEscan)
T25 sequence (Q5VT25 whole entry): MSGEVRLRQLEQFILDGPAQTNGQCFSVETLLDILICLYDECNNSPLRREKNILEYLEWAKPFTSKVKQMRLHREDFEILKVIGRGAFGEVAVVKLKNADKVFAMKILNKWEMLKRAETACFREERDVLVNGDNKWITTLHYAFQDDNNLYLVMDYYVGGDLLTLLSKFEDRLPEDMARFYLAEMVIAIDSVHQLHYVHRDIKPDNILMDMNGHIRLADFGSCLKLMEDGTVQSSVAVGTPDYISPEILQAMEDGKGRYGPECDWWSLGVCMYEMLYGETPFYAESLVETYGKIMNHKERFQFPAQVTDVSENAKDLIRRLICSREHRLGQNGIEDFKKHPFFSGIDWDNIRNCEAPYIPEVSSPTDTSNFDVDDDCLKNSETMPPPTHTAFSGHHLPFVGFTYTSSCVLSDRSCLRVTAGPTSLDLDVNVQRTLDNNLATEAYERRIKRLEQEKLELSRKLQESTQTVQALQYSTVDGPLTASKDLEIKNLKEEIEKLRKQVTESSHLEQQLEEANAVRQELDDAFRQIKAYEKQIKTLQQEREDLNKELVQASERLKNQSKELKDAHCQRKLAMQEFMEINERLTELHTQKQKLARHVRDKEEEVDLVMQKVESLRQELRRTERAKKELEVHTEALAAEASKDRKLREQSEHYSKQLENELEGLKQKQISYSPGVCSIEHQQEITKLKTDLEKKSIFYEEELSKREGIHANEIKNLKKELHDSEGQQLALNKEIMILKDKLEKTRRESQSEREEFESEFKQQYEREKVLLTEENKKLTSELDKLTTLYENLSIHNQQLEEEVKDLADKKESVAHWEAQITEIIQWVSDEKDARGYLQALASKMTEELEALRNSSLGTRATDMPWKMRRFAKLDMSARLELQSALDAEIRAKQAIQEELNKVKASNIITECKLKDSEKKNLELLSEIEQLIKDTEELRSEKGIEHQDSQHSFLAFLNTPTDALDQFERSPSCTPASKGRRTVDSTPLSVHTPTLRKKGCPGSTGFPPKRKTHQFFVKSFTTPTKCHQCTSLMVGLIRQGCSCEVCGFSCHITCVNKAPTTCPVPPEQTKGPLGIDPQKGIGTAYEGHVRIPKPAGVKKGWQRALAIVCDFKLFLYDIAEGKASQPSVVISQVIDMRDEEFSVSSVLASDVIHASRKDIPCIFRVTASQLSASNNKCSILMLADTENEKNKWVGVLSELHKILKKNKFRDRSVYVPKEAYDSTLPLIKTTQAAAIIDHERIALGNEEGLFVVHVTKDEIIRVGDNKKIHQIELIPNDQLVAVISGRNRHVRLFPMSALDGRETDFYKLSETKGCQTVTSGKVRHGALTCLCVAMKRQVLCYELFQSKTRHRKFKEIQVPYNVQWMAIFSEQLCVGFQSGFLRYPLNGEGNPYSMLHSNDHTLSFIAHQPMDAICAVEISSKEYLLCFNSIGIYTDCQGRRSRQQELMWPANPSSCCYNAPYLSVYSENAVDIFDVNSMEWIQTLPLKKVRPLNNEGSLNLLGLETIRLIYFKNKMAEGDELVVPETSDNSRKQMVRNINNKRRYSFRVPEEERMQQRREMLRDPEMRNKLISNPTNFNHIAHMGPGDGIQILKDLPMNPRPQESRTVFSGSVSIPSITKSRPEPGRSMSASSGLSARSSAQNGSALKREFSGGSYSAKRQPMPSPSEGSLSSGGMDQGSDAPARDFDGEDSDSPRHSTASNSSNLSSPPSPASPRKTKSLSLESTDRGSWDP

AXL = biological target: T26, AXL (Homo sapiens, UniProt P30530); test: kinome scan; type: binding; conditions: 10 µM
T26 construct: purchased DiscoverX (KINOMEscan)

TSSK1B = biological target: T27, TSSK1B (Homo sapiens, UniProt Q9BXA7); test: kinome scan; type: binding; conditions: 10 µM
T27 construct: purchased DiscoverX (KINOMEscan)

[3] = biological target: T28, ABL1(T315I)-nonphosphorylated (Homo sapiens, UniProt P00519, T315I); test: kinome scan; type: binding; conditions: 10 µM
T28 construct: purchased DiscoverX (KINOMEscan)

FGFR2 = biological target: T29, FGFR2 (Homo sapiens, UniProt P21802); test: kinome scan; type: binding; conditions: 10 µM
T29 construct: purchased DiscoverX (KINOMEscan)

MTOR = biological target: T30, MTOR (Homo sapiens, UniProt P42345); test: kinome scan; type: binding; conditions: 10 µM
T30 construct: purchased DiscoverX (KINOMEscan)

TNK2 = biological target: T31, TNK2 (Homo sapiens, UniProt Q07912); test: kinome scan; type: binding; conditions: 10 µM
T31 construct: purchased DiscoverX (KINOMEscan)

[4] = biological target: T32, JAK1(JH1domain-catalytic) (Homo sapiens, UniProt P23458); test: kinome scan; type: binding; conditions: 10 µM
T32 construct: JAK1(JH1domain-catalytic); purchased DiscoverX (KINOMEscan)

TTK = biological target: T33, TTK (Homo sapiens, UniProt P33981); test: kinome scan; type: binding; conditions: 10 µM
T33 construct: purchased DiscoverX (KINOMEscan)
T33 sequence (P33981 whole entry): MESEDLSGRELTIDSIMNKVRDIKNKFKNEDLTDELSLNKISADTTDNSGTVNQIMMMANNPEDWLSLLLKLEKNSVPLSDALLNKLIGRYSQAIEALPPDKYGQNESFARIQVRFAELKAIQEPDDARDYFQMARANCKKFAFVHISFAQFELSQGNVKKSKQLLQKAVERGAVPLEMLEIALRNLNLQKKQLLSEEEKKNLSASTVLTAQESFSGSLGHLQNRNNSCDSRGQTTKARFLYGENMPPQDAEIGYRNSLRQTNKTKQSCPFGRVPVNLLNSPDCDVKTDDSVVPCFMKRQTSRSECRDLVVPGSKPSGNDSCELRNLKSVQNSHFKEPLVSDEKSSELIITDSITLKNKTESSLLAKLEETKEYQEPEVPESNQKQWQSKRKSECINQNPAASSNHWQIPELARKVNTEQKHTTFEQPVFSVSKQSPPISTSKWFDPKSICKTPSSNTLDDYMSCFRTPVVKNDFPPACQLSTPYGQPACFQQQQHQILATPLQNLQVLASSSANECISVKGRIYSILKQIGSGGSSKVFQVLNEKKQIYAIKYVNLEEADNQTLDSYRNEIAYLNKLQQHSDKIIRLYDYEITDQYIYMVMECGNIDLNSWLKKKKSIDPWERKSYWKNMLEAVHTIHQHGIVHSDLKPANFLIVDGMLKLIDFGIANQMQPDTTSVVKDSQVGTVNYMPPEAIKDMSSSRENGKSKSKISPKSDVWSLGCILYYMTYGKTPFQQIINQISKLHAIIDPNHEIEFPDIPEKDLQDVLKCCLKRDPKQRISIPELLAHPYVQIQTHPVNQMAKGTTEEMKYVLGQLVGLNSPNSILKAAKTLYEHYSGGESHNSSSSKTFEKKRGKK

CLK1 = biological target: T34, CLK1 (Homo sapiens, UniProt P49759); test: kinome scan; type: binding; conditions: 10 µM
T34 construct: purchased DiscoverX (KINOMEscan)

INSR = biological target: T35, INSR (Homo sapiens, UniProt P06213); test: kinome scan; type: binding; conditions: 10 µM
T35 construct: purchased DiscoverX (KINOMEscan)

DLK = biological target: T36, DLK (Homo sapiens, UniProt Q12852); test: kinome scan; type: binding; conditions: 10 µM
T36 construct: purchased DiscoverX (KINOMEscan)

EGFR = biological target: T37, EGFR (Homo sapiens, UniProt P00533); test: kinome scan; type: binding; conditions: 10 µM
T37 construct: purchased DiscoverX (KINOMEscan)
T37 sequence (P00533 25-1210): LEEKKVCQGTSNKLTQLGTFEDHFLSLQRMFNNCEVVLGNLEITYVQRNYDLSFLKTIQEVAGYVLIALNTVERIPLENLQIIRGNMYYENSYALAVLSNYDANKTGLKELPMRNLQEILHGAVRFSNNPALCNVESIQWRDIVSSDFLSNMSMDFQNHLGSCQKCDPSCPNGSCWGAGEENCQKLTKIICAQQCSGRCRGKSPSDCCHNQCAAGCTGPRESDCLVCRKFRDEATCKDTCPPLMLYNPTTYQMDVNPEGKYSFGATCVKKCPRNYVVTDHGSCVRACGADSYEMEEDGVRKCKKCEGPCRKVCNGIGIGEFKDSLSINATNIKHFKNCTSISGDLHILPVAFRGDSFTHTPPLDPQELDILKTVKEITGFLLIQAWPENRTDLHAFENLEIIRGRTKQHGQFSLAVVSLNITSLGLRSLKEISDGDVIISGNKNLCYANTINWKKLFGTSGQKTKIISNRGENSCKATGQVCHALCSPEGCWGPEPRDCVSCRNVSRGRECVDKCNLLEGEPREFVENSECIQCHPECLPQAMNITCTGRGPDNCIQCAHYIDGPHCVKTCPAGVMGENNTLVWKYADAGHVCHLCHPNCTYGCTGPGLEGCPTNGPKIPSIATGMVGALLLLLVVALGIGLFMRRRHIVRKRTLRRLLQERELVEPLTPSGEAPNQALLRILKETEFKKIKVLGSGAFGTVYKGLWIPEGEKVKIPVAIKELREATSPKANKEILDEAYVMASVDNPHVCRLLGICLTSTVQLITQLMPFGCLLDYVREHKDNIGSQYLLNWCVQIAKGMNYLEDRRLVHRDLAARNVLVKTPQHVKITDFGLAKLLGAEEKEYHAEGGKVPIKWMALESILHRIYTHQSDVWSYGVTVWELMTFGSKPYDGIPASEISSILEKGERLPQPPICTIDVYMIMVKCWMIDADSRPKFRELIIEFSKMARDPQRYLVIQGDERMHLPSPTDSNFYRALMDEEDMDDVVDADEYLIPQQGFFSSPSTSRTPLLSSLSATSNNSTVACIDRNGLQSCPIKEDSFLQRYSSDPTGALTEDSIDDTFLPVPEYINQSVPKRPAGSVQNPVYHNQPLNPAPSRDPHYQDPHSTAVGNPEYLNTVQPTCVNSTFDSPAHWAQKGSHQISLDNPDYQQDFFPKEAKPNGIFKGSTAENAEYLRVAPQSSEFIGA

STK36 = biological target: T38, STK36 (Homo sapiens, UniProt Q9NRP7); test: kinome scan; type: binding; conditions: 10 µM
T38 construct: purchased DiscoverX (KINOMEscan)

MARK1 = biological target: T39, MARK1 (Homo sapiens, UniProt Q9P0L2); test: kinome scan; type: binding; conditions: 10 µM
T39 construct: purchased DiscoverX (KINOMEscan)

PAK2 = biological target: T40, PAK2 (Homo sapiens, UniProt Q13177); test: kinome scan; type: binding; conditions: 10 µM
T40 construct: purchased DiscoverX (KINOMEscan)

NIM1 = biological target: T41, NIM1 (Homo sapiens, UniProt Q8IY84); test: kinome scan; type: binding; conditions: 10 µM
T41 construct: purchased DiscoverX (KINOMEscan)

Nc1ccc(N=Nc2ccccc2)c(N)n1 [phenazopyridine, 2,6-diamino-3-(phenylazo)pyridine] gave a kinase inhibition (ZAK) of 100, a kinase inhibition (EGFR(L747-E749delA750P)) of 86 and a kinase inhibition (NDR1) of 100. For the same molecule, the kinase inhibition (ERK4) was 74, the kinase inhibition (CAMKK1) was 100 and the kinase inhibition (CAMKK2) was 99. The kinase inhibition (KIT(L576P)) was 44, the kinase inhibition (MARK3) was 100 and the kinase inhibition (MEK3) was 54. It also gave a kinase inhibition (ACVR2B) of 84, a kinase inhibition (CSNK1A1L) of 100 and a kinase inhibition (CHEK2) of 99. For the same molecule, the kinase inhibition (DMPK2) was 100, the Concentration [1] was 3.1 µM and the kinase inhibition (JNK2) was 94. For the same molecule, the kinase inhibition (MLK2) was 100, the kinase inhibition [2] was 82 and the kinase inhibition (SNARK) was 87. For the same molecule, the kinase inhibition (KIT(V559DT670I)) was 71, the “remaining binding (% of control)” value (FRK) was 100 and the “remaining binding (% of control)” value (PKNB(M.tuberculosis)) was 96. It also gave a kinase inhibition (LYN) of 82, a kinase inhibition (EPHA3) of 81 and a kinase inhibition (LKB1) of 88. The kinase inhibition (PRKX) was 91, the kinase inhibition (MRCKA) was 99 and the kinase inhibition (AXL) was 100. It also gave a kinase inhibition (TSSK1B) of 87, a kinase inhibition [3] of 100 and a kinase inhibition (FGFR2) of 93. The kinase inhibition (MTOR) was 74, the kinase inhibition (TNK2) was 100 and the kinase inhibition [4] was 97. For the same molecule, the kinase inhibition (TTK) was 88, the kinase inhibition (CLK1) was 91 and the kinase inhibition (INSR) was 75. The kinase inhibition (DLK) was 73, the “remaining binding (% of control)” value (EGFR) was 93 and the kinase inhibition (STK36) was 99. The kinase inhibition (MARK1) was 95, the kinase inhibition (PAK2) was 97 and the kinase inhibition (NIM1) was 100.
